For one compound, IC50, Activity and Kd results are on record in ChEMBL document CHEMBL5375989, “Pioneering 4,11-Dioxo-4,11-dihydro-1H-anthra[2,3-d]imidazol-3-ium Compounds as Promising Survivin Inhibitors by Targeting ILF3/NF110 for Cancer Therapy” (J Med Chem, 2023).

The test system of data set [1] is ASPC1. Description: Antiproliferative activity against human ASPC1 cells assessed as inhibition of cell growth measured after 48 hrs by MTT assay. The data set is classed as functional, cell-based. The settings on record: aspc1. For orientation: Tetrazolium assays rely on reduction of a dye to a coloured formazan, in cell work by metabolically active cells.
Data set [2] deals with HeLa. Description: Antiproliferative activity against human HeLa cells assessed as inhibition of cell growth measured after 48 hrs by MTT assay. The data set is classed as functional, cell-based. The settings on record: hela.
Data set [3] concerns MRC5. In words: Antiproliferative activity against human MRC5 cells assessed as inhibition of cell growth measured after 48 hrs by MTT assay. The note with it: mrc5. The data set is classed as toxicity, cell-based.
Data set [4] can be described thus: Toxicity in BALB/c nude mouse assessed as effect on body weight at 2 mg/kg, sc administered every 2 days for 14 days. The data set is classed as organism-based. The settings on record: in vivo, 336 h, time 14 day.
In data set [5] the target is T1, Interleukin enhancer-binding factor 3 (Homo sapiens, UniProt Q12906).
T1 sequence (Q12906 whole entry): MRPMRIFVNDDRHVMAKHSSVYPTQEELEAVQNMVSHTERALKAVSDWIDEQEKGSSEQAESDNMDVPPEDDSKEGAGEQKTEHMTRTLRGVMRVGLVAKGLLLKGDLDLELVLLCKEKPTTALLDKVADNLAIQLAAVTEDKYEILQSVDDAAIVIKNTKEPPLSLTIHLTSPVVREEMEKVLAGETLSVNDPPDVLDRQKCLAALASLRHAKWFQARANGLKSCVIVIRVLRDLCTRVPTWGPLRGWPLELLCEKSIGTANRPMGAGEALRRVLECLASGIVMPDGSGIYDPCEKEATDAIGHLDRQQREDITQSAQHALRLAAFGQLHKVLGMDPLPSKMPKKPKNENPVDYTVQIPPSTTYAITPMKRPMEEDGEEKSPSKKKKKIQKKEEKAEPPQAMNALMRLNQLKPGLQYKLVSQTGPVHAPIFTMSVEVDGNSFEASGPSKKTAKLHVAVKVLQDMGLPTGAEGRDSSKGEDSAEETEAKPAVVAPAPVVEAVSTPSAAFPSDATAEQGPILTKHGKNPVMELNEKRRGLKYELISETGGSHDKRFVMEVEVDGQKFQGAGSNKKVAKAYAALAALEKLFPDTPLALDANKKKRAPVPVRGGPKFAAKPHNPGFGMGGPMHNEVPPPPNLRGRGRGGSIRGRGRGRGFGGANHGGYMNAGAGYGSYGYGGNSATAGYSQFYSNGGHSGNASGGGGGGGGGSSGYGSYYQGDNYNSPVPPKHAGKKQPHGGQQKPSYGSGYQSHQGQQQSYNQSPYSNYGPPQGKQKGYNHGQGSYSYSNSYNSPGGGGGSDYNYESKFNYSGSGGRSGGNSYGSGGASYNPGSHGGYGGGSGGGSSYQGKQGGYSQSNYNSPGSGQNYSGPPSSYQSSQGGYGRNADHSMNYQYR
Description: Binding affinity to ILF3 (unknown origin) assessed as dissociation constant at upto 1 uM by SPR method. (In general: In SPR one partner is held on a chip, and binding of the other changes the refractive index at the surface.)

Data set [6] deals with A549. In words: Induction of apoptosis in human A549 cells assessed as early apoptotic cells at 0.04 uM measured after 48 hrs by annexin V and PI staining based flow cytometry analysis (reference value: 0.71%). The data set is classed as functional. In general terms: In flow cytometry, cells or beads pass a laser one at a time.
For data set [7], the system named is A549. Description: Induction of apoptosis in human A549 cells assessed as necrotic cells at 0.04 uM measured after 48 hrs by annexin V and PI staining based flow cytometry analysis (reference value: 1.47%). The data set is classed as functional.
The subject of data set [8] is A549. Description: Induction of apoptosis in human A549 cells assessed as necrotic cells at 0.1 uM measured after 48 hrs by annexin V and PI staining based flow cytometry analysis (reference value: 1.47%). The data set is classed as functional.
Data set [9] has as its system 5637. In words: cells. The settings on record: Homo sapiens, 5637, 48 h.
Description: Antiproliferative activity against human 5637 cells assessed as inhibition of cell growth measured after 48 hrs by MTT assay

One may read the IC50 as the concentration at which inhibition is half-maximal. A word on the Kd: it is the constant that tells how readily two partners part at equilibrium. On to `Cn1c[n+](C)c2c1C(=O)c1cc3ccccc3cc1C2=O.[I-]`, for which the IC50 in [1] is 250 nM; in data set [2], 1160 nM; in data set [3], 6900 nM; in data set [9], 180 nM. Also, the Activity result in data set [4] is recorded as “Non-Toxic”; in data set [6] it was 6.08%; in data set [7], 4.74%; in [8], 6.62%. Moreover, in data set [5], the dissociation constant (Kd) stood at 163 nM.
